Laboratory results taken from publication PMC10385282, “Luteolin Protects Pancreatic β Cells against Apoptosis through Regulation of Autophagy and ROS Clearance” (Pharmaceuticals, 2023).

Target: T1, Drak2 (death-associated protein kinase-related apoptosis-inducing kinase-2) (Homo sapiens, UniProt O94768)
T1 construct: gene STK17B
T1 sequence (O94768 1-372): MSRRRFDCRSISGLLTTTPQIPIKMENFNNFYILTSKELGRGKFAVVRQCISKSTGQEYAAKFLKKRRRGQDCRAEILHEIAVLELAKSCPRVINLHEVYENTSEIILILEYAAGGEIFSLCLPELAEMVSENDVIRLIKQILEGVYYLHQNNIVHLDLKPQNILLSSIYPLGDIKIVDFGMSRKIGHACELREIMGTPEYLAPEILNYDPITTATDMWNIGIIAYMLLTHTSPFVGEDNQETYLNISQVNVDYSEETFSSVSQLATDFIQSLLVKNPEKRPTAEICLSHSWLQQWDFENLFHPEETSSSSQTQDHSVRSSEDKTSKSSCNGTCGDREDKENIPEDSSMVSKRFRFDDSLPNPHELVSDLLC
Test: biochemical
Set-up: ADP-Glo kinase assay, luminescence, residual Drak2 activity at 20 uM compound
Conditions: read-out: % of control remaining
Method: ADP-Glo kits (Promega, Madison, WI; #V6903) were used for Drak2 inhibitor screening. Drak2 activity was measured and calculated from the amount of ADP generated from the enzyme reaction. The compounds were dissolved in DMSO and diluted to the indicated concentration for the screening assay. Drak2 and substrate ATP were diluted in 1X Buffer (HEPES 50 mM (pH 7.0), NaN3 0.02%, Orthovanadate 0.1 mM, 5 mM MgCl2, 0.01% (w/v) bovine serum albumin). The 5 µL kinase reaction was performed using 1X kinase buffer that contained 1 μL of compound, 2 μL of Drak2 (160 nM) and 2 μL of substrate ATP (20 μM), and incubated for 2 h at room temperature. Then, 2.5 μL of ADP-Glo™ Reagent was added to each reaction and incubated for 2 h at room temperature to deplete the remaining ATP. Finally, 5 μL of Kinase Detection Reagent was added to each reaction to convert ADP to ATP via the luciferase reaction, which was detected using an EnVision multilabel plate reader. 22b was used as a positive control in the assay. Our previous work validated that Drak2 inhibitors can prevent pancreatic β cells from undergoing lipotoxicity-induced cell apoptosis. Therefore, we established a kinase activity detection assay in vitro using the ADP-Glo^TM Kinase Assay kit (Promega, Madison, WI, USA) and screened the Natural Product and Derivatives Focus Library to identify small molecules that can inhibit Drak2 activity. […]

O=c1cc(-c2ccc(O)c(O)c2)oc2cc(O)cc(O)c12 [luteolin]
remaining activity at 20 µM: 7.74 ± 1.75%
